Measured values published in patent publication US4713247A, “Long-acting formulation of cefaclor” (priority 1983, dated 1987).
≈ marks a conversion by molar mass, not a printed value. Entries after “also recorded” stand apart in the source; their conditions may differ. Read-outs that look alike come from different tables or passages of the source.

How the values were obtained:
[1] = clinical use; cited from earlier work
[2] = parameters: species or system healthy and adult men (volunteers); conditions: human, in vivo, po
Experimental: 250 mg Capsules of Keflex® (Shionogi & Co., (LTD-Lilly) as CEX and 250 mg capsules of Kefral® (Shionogi & Co., LTD-Lilly) as CCL were employed.
The subjects, 12 healthy and adult men aged 21 to 39 years with 1.58 to 1.83 m^2 in the body surface area.
To each subject after fasting, who had no meal after supper of the previous day, were given orally the capsules with 100 ml of warm water, and the fasting was continued for 2 hours, except giving them a prefixed amount of water. CEX and CCL were given to the 12 subjects in a cross-over method, and any drugs other than CEX or CCL were not applied for one week.
The blood was collected 8 times, just before the administration, after 0.5, 0.75, 1, 1.5, 2, 3 and 6 hours. The plasma was centrifugally separated under cooling immediately after each collection, rapidly frozen and then preserved at -20° C. until the time of measurement.
The measurement were made within a week after the collection. After the frozen samples were allowed to melt at 4° C., a series of ten-fold dilution was prepared with 0.1M of phosphate buffer (pH 6.0), on which the blood level was measured by a band culture method using Micrococcus luteus ATCC 9341 as standard. Antibiotic Medium No. 8 (Difco; hereinafter referred to as ABM 8) was employed as a medium.

[3] = tested on: Staphylococcus aureus No. 1021; assay: Susceptibility (MIC), Staphylococcus aureus No. 1021 (Table 3); type: cell-based
Experimental: (§1) 1.56 μg/ml: The value was determined by the above-identified method, where Muller-Hinton agar (Difco) as the medium was employed. Method 1.
(§2) The same procedures as in Experiment 3. were applied to the following strains. The following MIC values were also determined according to the same method as in Experiment 3.
(§3) The values with *^1 or *^2 were determined by the method 1 or 2
(§4) disclosed in Experiment 3, respectively.

[4] = relative to CEX; cited from earlier work
[5] = tested on: Staphylococcus aureus No. 1037; assay: Susceptibility (MIC) of Staphylococcus aureus No. 1037; type: cell-based
Experimental: (2)Susceptibility of the test miocroorganisms (MIC value):
as §1

Escherichia coli ES-80 = assay: Susceptibility (MIC), Escherichia coli ES-80 (Table 3); type: cell-based
Experimental: as §1, §2, §3, §4

Escherichia coli ES-68 = assay: Susceptibility (MIC), Escherichia coli ES-68 (Table 3); type: cell-based
Experimental: as §1, §2, §3, §4

[6] = tested on: Escherichia coli NIH JC-2; assay: Minimum inhibitory concentration, Escherichia coli NIH JC-2 (Table 1); type: cell-based; conditions: NIHJC2, dilution method, Chemotherapy 29(1), 76-79 (1981)
Experimental: (§5) Minimum Inhibitory Concentrations (MICs) were assayed according to the
(§6) dilution method disclosed in Chemotherapy 29(1), 76-79 (1981).

[7] = tested on: Staphylococcus aureus No. 6; assay: Susceptibility (MIC), Staphylococcus aureus No. 6 (Table 3); type: cell-based
Experimental: as §1, §2, §3, §4

Escherichia coli ES-69 = assay: Susceptibility (MIC), Escherichia coli ES-69 (Table 3); type: cell-based
Experimental: as §1, §2, §3, §4

Escherichia coli No. 29 = assay: Minimum inhibitory concentration, Escherichia coli No. 29 (Table 1); type: cell-based; conditions: dilution method, Chemotherapy 29(1), 76-79 (1981)
Experimental: as §5, §6

[8] = tested on: Escherichia coli NIH JC2 or Escherichia coli No. 29; assay: Time and concentration required for 99% sterilization, both strains together (Experiment 2); type: cell-based; conditions: in words
Experimental: Additionally, the bactericidal effects of CCL were compared with those of CEX through the following in vitro tests (details of the tests are described afterwards). The concentrations of CCL or CEX and the time which are needed for diminishing 99% of the inoculum size were measured (FIG. 2, Table 2).
Heart infusion broth (Nissui Pharmaceutical Co.)
The test microorganisms at the logarithmic growth phase (about 10^6 CFU/ml) were spread into the aforementioned broth placed in tubes, to which CCL or CEX was applied at prefixed serial concentrations. Changing in the number of viable microorganisms was monitored in order to measure the time required for 99% sterilization of the inoculum size in each tube.

Row | Compound | clinical effectiveness [1] | half-life compared with CEX [2] | MIC ([3]; NO.1021, 10^5 CFU/ml, Method 2) [µg/mL] | MIC ([3]; NO.1021, 10^6 CFU/ml, Method 1) [µg/mL] | antimicrobial spectrum compared with CEX [4] | bactericidal action compared with CEX [4] | MIC ([5]; NO.1037, Method 1, Muller-Hinton agar) [µg/mL] | MIC ([5]; NO.1037, Method 2, ABM 3 broth, 18 to 20 hours after inoculation (10^5 CFU/ml)) [µg/mL] | MIC (Escherichia coli ES-80; ES80, 10^5 CFU/ml, Method 2) [µg/mL] | MIC (Escherichia coli ES-80; ES80, 10^6 CFU/ml, Method 1) [µg/mL] | MIC (Escherichia coli ES-68; ES68, 10^5 CFU/ml, Method 2) [µg/mL] | MIC (Escherichia coli ES-68; ES68, 10^6 CFU/ml, Method 1) [µg/mL] | MIC [6] [µg/mL] | MIC ([7]; NO.6, 10^5 CFU/ml, Method 2) [µg/mL] | MIC ([7]; NO.6, 10^6 CFU/ml, Method 1) [µg/mL] | MIC (Escherichia coli ES-69; 10^5 CFU/ml, Method 2) [µg/mL] | MIC (Escherichia coli ES-69; Escherichia coli, ES69, 10^6 CFU/ml, Method 1, read-out: MIC) [µg/mL] | MIC (Escherichia coli No. 29) [µg/mL] | time required for 99% sterilization compared with CEX ([8]; relative to CEX, monohydrate) | concentration needed for diminishing 99% of the inoculum size ([8]; multiples of MIC)
1 | N[C@@H](C(=O)N[C@@H]1C(=O)N2C(C(=O)O)=C(Cl)CS[C@H]12)c1ccccc1 [CCL, 3-chloro-7-D-(2-phenylglycinamido)-3-cephem-4-carboxylic acid monohydrate] | highly effective in clinical use | half-life shorter | 3.13 | 1.56 | broader spectrum | more potent bactericidal action than CEX | 1.56 | 3.13 | 3.13 | 1.56 | 3.13 | 1.56 | 3.13 | 6.25 | 3.13 | 3.13 | 3.13 | 1.56 | within a shorter period of time than CEX; also recorded: much shorter at any MIC of 1/2 to about 64 than for CEX | –
2 | CC1=C(C(=O)O)N2C(=O)[C@@H](NC(=O)[C@H](N)c3ccccc3)[C@H]2SC1 [CEX] | – | – | – | – | – | – | – | – | – | – | – | – | 6.25 (≈ 18 µM) | – | – | – | – | 3.13 (≈ 9.01 µM) | – | at least one MIC; also recorded: one or more MICs
